Where two headings read alike, the source gives them in different places.
What was measured:
[1] = cited from earlier work
mold colonies = assay: Cidal action of controlled hypochlorous acid vapor on mold colonies (general statements); assay type: cell-based
mold and mold stains = assay: Mold kill and mold stain removal study: vapor from acidified 6.0% NaOCl diluted in water, in a 1400 cc container; assay type: cell-based; settings: 5 mL 6.0% NaOCl + 50 mL water, in 1400 cc
Procedure: First, the recommended concentration of HOCl for sanitization of surfaces according to the prior art is calculated. Referring to the label of Ultra Chlorox® brand of sodium hypochlorite and noticing that a recommended concentration of NaOCl for mold and mildew stain removal is 3⁄4 cup Ultra Chlorox® plus one gallon of water. Ultra Chlorox® contains 6.00% NaOCl per the label. […] For the mold remediation studies, 5 mL of 6.0% NaOCl was mixed with 50 mL of water, acidified and was placed in a container with a volume of 1400 cc. • 5 mL of 6.0% NaOCl=0.30 g NaOCl • Assuming all of the NaOCl is converted to HOCl: • 0.30 g NaOCl=(0.30 g NaOCl)(52.5 g HOCl)/(74.5 g NaOCl)=0.21 g HOCl This quantity of HOCl is diluted to 1400 cc. Therefore, the maximum concentration of HOCl gas in the container studied is: • 0.21 g HOCl/1400 cc=15×10^-5 g HOCl/cc […]

germs on surfaces [2] = assay: Label-recommended hypochlorite concentration for sanitization of surfaces (Ultra Clorox label)
mold and mildew stain = assay: Label-recommended hypochlorite concentration for mold and mildew stain removal (Ultra Chlorox label)
Procedure: First, the recommended concentration of HOCl for sanitization of surfaces according to the prior art is calculated. Referring to the label of Ultra Chlorox® brand of sodium hypochlorite and noticing that a recommended concentration of NaOCl for mold and mildew stain removal is 3⁄4 cup Ultra Chlorox® plus one gallon of water. Ultra Chlorox® contains 6.00% NaOCl per the label. […] For the mold remediation studies, 5 mL of 6.0% NaOCl was mixed with 50 mL of water, acidified and was placed in a container with a volume of 1400 cc. • 5 mL of 6.0% NaOCl=0.30 g NaOCl • Assuming all of the NaOCl is converted to HOCl: • 0.30 g NaOCl=(0.30 g NaOCl)(52.5 g HOCl)/(74.5 g NaOCl)=0.21 g HOCl This quantity of HOCl is diluted to 1400 cc. Therefore, the maximum concentration of HOCl gas in the container studied is: • 0.21 g HOCl/1400 cc=15×10^-5 g HOCl/cc

mold = assay: Mold remediation study: vapor from acidified 600 ppm NaOCl in a closed 1400 cc container; assay type: cell-based; settings: 10 ml acidified 600 ppm NaOCl in 1400 cc; all NaOCl assumed converted to HOCl
Procedure: For purposes of the calculation which now follows, it is assumed that essentially all of the NaOCl is converted to HOCl when acidified, which is a valid assumption given the equilibrium of the reaction. For mold remediation studies, 10 ml of acidified 600 ppm NaOCl was placed in a container with a volume of 1400 cc. • 10 ml of 600 ppm NaOCl=0.00600 g NaOCl/10 ml • 0.00600 g NaOCl=(0.00600 g NaOCl)(52.5 g HOCl)/(74.5 g NaOCl)=0.00423 g HOCl This quantity is diluted to 1400 cc. Therefore, the maximum concentration of HOCl gas in the container studied is: • 0.00423 g/1400 cc=3.02×10^−6 g HOCl/cc. […] Thus, we have discovered that by converting the NaOCl to HOCl and using it in the form of a gas the concentration needed for mold cidal activity is at least about 47 times less than is recommended for sanitation in the liquid form of hypochlorite bleach! We next investigated the removal of mold stain from surfaces.

germs on surfaces [3] = settings: cited from earlier work

OCl [hypochlorous acid]
% as HOCl ([1]; pH 5.0): 100% | % as HOCl ([1]; pH 6.0): 96% | % as HOCl ([1]; pH 7.0): 72% | % as HOCl ([1]; pH 7.2): 66% | % as HOCl ([1]; pH 7.5): 48% | % as HOCl ([1]; pH 7.8): 33% | % as HOCl ([1]; pH 8.0): 22% | time to completely eradicate even the most refractory of mold colonies (mold colonies; hypochlorous acid vapors generated and controlled as described): ≤ 24 h | hypochlorous acid concentration in the air that must be exceeded for effective cidal action on mold-contaminated materials (mold colonies; in air): exceed 3×10^−7 grams/cubic centimeter | maximum concentration of HOCl gas in the container found to kill mold and remove stains (mold and mold stains): 15×10^−5 g HOCl/cc | equivalent concentration of HOCl necessary to sanitize per manufacturer recommendation (germs on surfaces [2]; calculated from 200 ppm NaOCl, liquid): 1.41×10^−4 g HOCL/cc | Conc. of HOCl equivalent to the recommended stain removal solution (mold and mildew stain; all NaOCl assumed converted to HOCl): 0.0019 g HOCl/cc | maximum concentration of HOCl gas in the container found to kill mold (mold): 3.02×10^−6 g HOCl/cc

OCl [sodium hypochlorite, reference compound]
recommended sanitizing concentration expressed by volume (germs on surfaces [2]; corresponds to 200 ppm aqueous solution): 200×10^−6 grams/cc | NaOCl conc. recommended by Ultra Chlorox for mold and mildew stain removal (mold and mildew stain; ¾ cup Ultra Chlorox (6.00% NaOCl) plus one gallon of water): 0.0027 g/cc | recommended concentration for killing germs on surfaces / sanitation (germs on surfaces [3]): 200 ppm

hypochlorite ion [OCl—]
% as OCl— ([1]; pH 5.0): 0% | % as OCl— ([1]; pH 6.0): 4% | % as OCl— ([1]; pH 7.0): 28% | % as OCl— ([1]; pH 7.2): 34% | % as OCl— ([1]; pH 7.5): 52% | % as OCl— ([1]; pH 7.8): 67% | % as OCl— ([1]; pH 8.0): 78%
